Reference: patent publication US8597646B2, “Methods and compositons featuring TGF-beta antagonists for the treatment of marfan syndrome and associated disorders” (The Johns Hopkins University, priority 2005, dated 2013)
“Also recorded” adds a separate entry of the source.

Experiments:
Assay type in all cases: in vivo, mouse
Fbn1C1039G/+ mice [1] = experiment: Steady-state skeletal muscle architecture and fiber cross sectional area in Fbn1C1039G/+ mice; settings: for Steady-state muscle architecture, in words: fibrillin-1 deficient mice, monopotassium salt
Procedure: Wild-type and Fbn1^C1039G/+ mice received intraperitoneal injections of TGFβ-neutralizing antibody (R&D Systems, once every two weeks) starting at 7 weeks of age. The antibody was diluted in PBS (pH 7.4) and administered at a dose of 1 mg/kg or 10 mg/kg body weight. Rabbit IgG (10 mg/kg; Zymed Laboratories Inc.) was administered in a similar fashion as a negative control. Mice were sacrificed after 2 months of treatment and a minimum of 6 mice per genotype were used for histologic and morphometric analyses.
Mice were continued on oral therapy for 6 months and sacrificed. […] Age-matched wild-type and mdx mice (placebo-treated) served as a control group. After 6 months of treatment, forelimb and hindlimb grip strength was assessed using an automated grip strength meter (Columbus Instruments, Columbus, Ohio). The experiments for forelimb and hindlimb grip strength testing were conducted at different days allowing for a minimum recovery period of 10 days. Total peak force (in Newtons) was determined by an electronic strain gauge as previously described and corrected for body weight (Wagner, K. R., et al. (2002) Ann Neurol 52, 832-6). Five measurements within 2 minutes were taken from each animal. […] The degree of fatigue was calculated by comparing the first two pulls to the last two pulls with the decrement between pulls 1+2 and pulls 4+5 providing a measure of fatigue. […]
For morphometric analyses, skeletal muscle was flash frozen in cooled isopentane and mounted in Tragacanth (Sigma Aldrich, USA). […] Muscle fibers were counted in a defined area (9 mm^2) of the tibialis anterior muscle of 10-day-old wild-type (n=3) and Fbn1C1039G/C1039G mice (n=6) and fiber diameter was determined by measuring the shortest fiber axis within cross-sections of the tibialis anterior muscle, counting a total of 850-1500 fibers. The cross sectional area of undamaged and regenerating myofibers of the tibialis anterior muscle from wild-type and Fbn1^C1039G/+ mice was expressed as a distribution of the percentage of the total number of myofibers analyzed (850-1500) (Horsley, V. et al (2003) Cell 113, 483-94). […]

Fbn1C1039G/+ mice [2] = experiment: Muscle regeneration after cardiotoxin-induced injury in Fbn1C1039G/+ mice; settings: 4 and 18 days after injury, monopotassium salt
Procedure: All mouse protocols were approved by the Animal Care and Use Committee of Johns Hopkins University School of Medicine. Creation of the mouse line harboring the Fbn1 mutation C1039G has been previously described (Judge, D. P. et al. (2004) J Clin Invest 114, 172-81). All analyses were performed in male mice after back-crossing (>9 times) this mutation into the C57BL/6J background, allowing valid comparisons between litters. Mice were sacrificed with an inhalation overdose of halothane (Sigma-Aldrich) or by cervical dislocation. […] Subsequently, mice were analyzed at 4, 7, 18 and 28 days after injury. For regeneration experiments in mdx mice we injected 150 μl of cardiotoxin into the tibialis anterior muscle of wild-type and mdx mice, either treated or untreated with TGFβ neutralizing antibody (n=6 each group) at 9 months of age and analyzed skeletal muscle at 4 days and 18 days after injection.
Mice were continued on oral therapy for 6 months and sacrificed. […] After 6 months of treatment, forelimb and hindlimb grip strength was assessed using an automated grip strength meter (Columbus Instruments, Columbus, Ohio). […] Total peak force (in Newtons) was determined by an electronic strain gauge as previously described and corrected for body weight (Wagner, K. R., et al. (2002) Ann Neurol 52, 832-6). […]

Fbn1mgR/mgR mice = experiment: Forelimb grip strength and fatigue in Fbn1mgR/mgR mice; settings: 5 months of losartan, untreated 28±2.5, wild-type 3±0.8
Procedure: Mice were continued on oral therapy for 6 months and sacrificed. […] Age-matched wild-type and mdx mice (placebo-treated) served as a control group. After 6 months of treatment, forelimb and hindlimb grip strength was assessed using an automated grip strength meter (Columbus Instruments, Columbus, Ohio). The experiments for forelimb and hindlimb grip strength testing were conducted at different days allowing for a minimum recovery period of 10 days. Total peak force (in Newtons) was determined by an electronic strain gauge as previously described and corrected for body weight (Wagner, K. R., et al. (2002) Ann Neurol 52, 832-6). Five measurements within 2 minutes were taken from each animal. The three highest measurements for each animal were averaged to give the strength score. The degree of fatigue was calculated by comparing the first two pulls to the last two pulls with the decrement between pulls 1+2 and pulls 4+5 providing a measure of fatigue. Similarly, functional measurements were performed in 6 month old fibrillin-1 deficient mice (Fbn1^mgR) (Pereira, L. et al. (1997) Nat Genet. 17, 218-22) after 5 months of treatment.

How did the “Steady-state muscle architecture, in words” value (Fbn1C1039G/+ mice [1]; listed as Losartan) turn out when `CCCCc1nc(Cl)c(CO)n1Cc1ccc(-c2ccccc2-c2nnn[nH]2)cc1.[K]` [losartan, 2-butyl-4-chloro-1-[p-(o-1H-tetrazol-5-ylphenyl)benzyl]imidazole-5-methanol monopotassium salt] was run?
The value was “rescued; also recorded: normalized”.

What about the “Steady-state muscle architecture, in words” value (Fbn1C1039G/+ mice [1]) of the same molecule?
Its value is “fully normalized”.

What about the “Mean fiber size (muscle fiber cross sectional area)” value (Fbn1C1039G/+ mice [1]; steady state, postnatal losartan, untreated 1746±39, wild-type 2741±69) of the same molecule?
The value was 2527±58 μm^2.

What about the “Muscle regeneration after cardiotoxin injury, in words” value (Fbn1C1039G/+ mice [2]; listed as Losartan) of the same molecule?
The value was “rescued; also recorded: normal initiation of muscle regeneration”.

What about the “Muscle regeneration after cardiotoxin injury, in words” value (Fbn1C1039G/+ mice [2]) of the same molecule?
The value was “markedly improved”.

What about the Fatigue (Fbn1mgR/mgR mice) of the same molecule?
The Fatigue was 9%±1.8.
